Measurements reported in patent US20230372407A1, “METHODS FOR MODULATING TLR4 SIGNALING” (President and Fellows of Harvard College, priority 2020, published 2023).
Read-outs that look alike come from different tables or passages of the source.

Experiments:
[1] = tested on: ISG expression; experiment: ISG expression in spleen (qRT-PCR); type: in vivo, mouse
[2] = tested on: ISG expression; experiment: ISG expression in mesenteric lymph nodes (qRT-PCR); type: in vivo, mouse
[3] = tested on: TLR4; type: cell-based, mouse
[4] = tested on: VSV-GFP; type: cell-based, mouse
[5] = Mouse autoimmune disease model; type: in vivo; conditions: dependent on IFN-I signaling; data not shown
[6] = tested on: VSV strain Indiana; conditions: mouse, in vivo, po
[7] = tested on: Human specimens; experiment: Human specimens response to PSA; type: cell-based
[8] = tested on: Ifnb1 expression; experiment: Ifnb1 expression by lamina propria DCs (qRT-PCR); type: in vivo, mouse; conditions: WT SPF mice, 150 ug oral gavage, 1.5 hrs
Procedure: To confirm the relevance of these findings in vivo, Ifnb1 expression by colon LP DCs was analyzed in WT SPF mice administered 150 ug of PSA by oral gavage.
RNA was isolated from whole tissues or the DC^+ and DC^− fractions of spleens, mLNs, and colons following manufacturer's instructions with the RNeasy mini kit (Qiagen). cDNA was prepared with the Quantitect Reverse Transcription Kit (Qiagen). qRT-PCR was performed on a QuantStudio7 Flex or Pro Real-Time PCR system (Applied Biosystems) with RT^2 SYBR Green ROX qPCR Mastermix (Qiagen). Amplification was achieved using an initial cycle of 95° C. for 10 min, followed by 40 cycles of 95° C. for 15 s and 60° C. for 1 min. Gene expression was normalized using Actb as a reference gene. The forward (f) and reverse (r) primers used to detect expression of the corresponding murine genes were as follows (SEQ ID NOs: 1-20, respectively):
Single-cell suspensions of the indicated tissues were prepared as described. DC positive and negative fractions were isolated with mouse pan-DC microbeads (Miltenyi), following the manufacturer's protocol.
GFWT C57BL/6 mice were administered B. fragilis strain NCTC 9343 or C. ramosum strain AO31 by oral gavage [200 uL, approximately 10^8-10^9 colony-forming units (CFU) per mouse]. […]

[9] = tested on: CD4+ T cells; type: cell-based; conditions: data not shown
[10] = tested on: IAV/PR8-GFP; type: cell-based, mouse
[11] = tested on: CD4+FOXP3+ Tregs; experiment: Human colon biopsy cLP lymphocytes, IL-10 production by CD4+FOXP3+ Tregs; type: cell-based; conditions: total cLP lymphocytes from human colon biopsies, 6-10 days
Procedure: FIG. 13. PSA induces Tregs in cells obtained from human gut tissue biopsies. Total cLP lymphocytes from 8-10 human colon biopsies were treated with PBS, WT-OMV, DPSA-OMV, or purified PSA for 6-10 days. IL-10 production by CD4+FOXP3+ Tregs was assessed by flow cytometry and intracellular cytokine staining. ** p<0.01, One-way ANOVA. Error bars represent mean +S.E.M.

[12] = tested on: ISG expression; experiment: ISG / BST2 expression in BMDCs (qRT-PCR, flow cytometry); type: cell-based, mouse
[13] = WT SPF mice + metronidazole 7 days (Table 4)
[14] = WT SPF mice + metronidazole 7 days (Table 3)

Compound: Cc1ncc([N+](=O)[O-])n1CCO [metronidazole]
- Ifit1 Spleen fold difference gene expression to WT SPF, Mean [1, 13]: 0.57 fold
- Ifit2 Spleen fold difference gene expression to WT SPF, Mean [1, 13]: 0.69 fold
- Ifit3 Spleen fold difference gene expression to WT SPF, Mean [1, 13]: 0.76 fold
- Irf7 Spleen fold difference gene expression to WT SPF, Mean [1, 13]: 0.68 fold
- Mx1 Spleen fold difference gene expression to WT SPF, Mean [1, 13]: 0.78 fold
- Oas/2 Spleen fold difference gene expression to WT SPF, Mean [1, 13]: 0.74 fold
- Rsad2 Spleen fold difference gene expression to WT SPF, Mean [1, 13]: 0.46 fold
- ISG expression in spleen (panel) ([1]; WT mice vs WT SPF): significant decreases in ISG expression
- Ifit1 mLN fold difference gene expression to WT SPF, Mean [2, 14]: 0.57 fold
- Ifit2 mLN fold difference gene expression to WT SPF, Mean [2, 14]: 0.69 fold
- Ifit3 mLN fold difference gene expression to WT SPF, Mean [2, 14]: 0.76 fold
- Irf7 mLN fold difference gene expression to WT SPF, Mean [2, 14]: 0.68 fold
- Mx1 mLN fold difference gene expression to WT SPF, Mean [2, 14]: 0.78 fold
- Oas/2 mLN fold difference gene expression to WT SPF, Mean [2, 14]: 0.74 fold
- Rsad2 mLN fold difference gene expression to WT SPF, Mean [2, 14]: 0.46 fold
- ISG expression in mLN (panel) ([2]; WT mice vs WT SPF): significant decreases in ISG expression

Compound: lipooligosaccharide [LOS]
- IFNβ secretion by BMDCs ([3]; Tlr4−/− BMDCs vs WT): through TLR4
- IFNβ secretion by BMDCs ([3]; WT BMDCs): dose-dependent manner

Compound: polysaccharide A [PSA]
- Protection from VSV-GFP infection [4]: completely lost
- cell viability [4]: increased cell viability
- percentage of infected (GFP+) cells [4]: inhibited virus infection in a dose-dependent manner
- protective effects in a mouse autoimmune disease model [5]: protective effects
- daily and cumulative paralysis scores [6]: decreased
- incidence of disease [6]: decreased
- survival [6]: enhanced survival
- response of human specimens [7]: dose-dependent manner
- IFNβ secretion by BMDCs ([3]; Myd88−/− BMDCs, 50 ug/mL, 6 hrs): significant decrease
- IFNβ secretion by BMDCs ([3]; Tlr2−/− BMDCs vs WT, 50 ug/mL, 6 hrs): no effect
- IFNβ secretion by BMDCs ([3]; Tlr4−/− BMDCs vs WT): completely lost the ability to secrete IFNβ
- IFNβ secretion by BMDCs ([3]; Trif−/− BMDCs, 50 ug/mL, 6 hrs): lack of increased IFNβ secretion
- IFNβ secretion by BMDCs ([3]; WT BMDCs): significantly induced
- IFNβ secretion by BMDCs ([3]; dectin-1 deficient (Clec7a−/−) BMDCs vs WT, 50 ug/mL, 6 hrs): no effect
- Ifnb1 expression by colon LP DCs [8]: significant increase
- IL-10 secretion by CD4+ T cells [9]: enhance IL-10 secretion
- antiviral effect against IAV/PR8-GFP [10]: completely abrogated
- cell viability [10]: increase in cell viability
- percentage of infected cells [10]: significant reduction
- IL-10 production by CD4+FOXP3+ Tregs [11]: induces Tregs
- Surface BST2 levels ([12]; Ifnar1−/− and Ifnb1−/− BMDCs vs WT): significantly reduced
- expression of a panel of ISGs ([12]; WT BMDCs, 24 hrs, 50 ug/mL, vs vehicle): increase in expression
- BST2 mean fluorescence intensity (MFI) ([12]; WT BMDCs, 24 hrs, 100 ug/mL, vs vehicle): increased
